How the values were obtained:
[1] = Potentiation of GABA-induced current in rat cortical neurons at 100 uM by whole-cell patch clamp technique; assay type: functional
[2] = Inhibition of voltage dependent sodium current in rat cortical neurons at 100 uM by whole-cell patch clamp technique; assay type: functional
Rattus norvegicus [3] = species: Rattus norvegicus; details: Membrane, 10 uM
[4] = Potentiation of GABA-induced current in rat cortical neurons at 10 uM by whole-cell patch clamp technique; assay type: functional
Rattus norvegicus [5] = test: Neurotoxicity in orally dosed Wistar rat after 1 hr by RotoRod test; assay type: toxicity, organism-based; details: in vivo, po
Rattus norvegicus [6] = test: Anticonvulsant activity in orally dosed Wistar rat after 4 hrs by MES test; assay type: functional; details: po
Rattus norvegicus [7] = test: Neurotoxicity in orally dosed Wistar rat after 2 hrs by RotoRod test; assay type: toxicity, organism-based; details: in vivo, po
Rattus norvegicus [8] = test: Anticonvulsant activity in orally dosed Wistar rat after 2 hrs by PTZ test; assay type: functional; details: po
Rattus norvegicus [9] = test: Anticonvulsant activity in orally dosed Wistar rat after 2 hrs by MES test; assay type: functional; details: po
Rattus norvegicus [10] = test: Anticonvulsant activity in orally dosed Wistar rat after 1 hr by MES test; assay type: functional; details: po
Rattus norvegicus [11] = test: Anticonvulsant activity in orally dosed Wistar rat after 0.5 hrs by MES test; assay type: functional; details: po
Rattus norvegicus [12] = test: Anticonvulsant activity in orally dosed Wistar rat after 1 hr by PTZ test; assay type: functional; details: po
Rattus norvegicus [13] = test: Neurotoxicity in orally dosed Wistar rat after 0.5 hrs by RotoRod test; assay type: toxicity, organism-based; details: in vivo, po
[14] = Inhibition of voltage dependent sodium current in rat cortical neurons at 10 uM by whole-cell patch clamp technique; assay type: functional
Rattus norvegicus [15] = test: Anticonvulsant activity in orally dosed Wistar rat after 3 hrs by PTZ test; assay type: functional; details: po
Rattus norvegicus [16] = test: Neurotoxicity in orally dosed Wistar rat after 4 hrs by RotoRod test; assay type: toxicity, organism-based; details: in vivo, po
Rattus norvegicus [17] = test: Anticonvulsant activity in orally dosed Wistar rat after 0.3 hrs by PTZ test; assay type: functional; details: po
[18] = Displacement of [3H]flunitrazepam from benzodiazepine receptor in rat neuronal membranes at 10 uM
Rattus norvegicus [19] = test: Anticonvulsant activity in orally dosed Wistar rat after 0.5 hr by PTZ test; assay type: functional; details: po

Structure (SMILES)	Activity [1]	inhibition at 100 µM [2]	inhibition (Rattus norvegicus [3])	Activity [4]	ED50 (Rattus norvegicus [5])	ED50 (Rattus norvegicus [12])	further results
Clc1ccc(-c2noc(Cn3ccnc3)n2)cc1	298%	72%	0.2%	103%	> 500 mg/kg		
c1ccc(-c2noc(Cn3cncn3)n2)cc1	286%	8%	2.7%				ED50 (Rattus norvegicus [6]): 13.1 mg/kg; ED50 (Rattus norvegicus [7]): 77 mg/kg; ED50 (Rattus norvegicus [8]): 37 mg/kg
Fc1ccccc1-c1noc(Cn2cncn2)n1	191%		2.2%				ED50 (Rattus norvegicus [7]): < 250 mg/kg; ED50 (Rattus norvegicus [9]): 44.3 mg/kg; ED50 (Rattus norvegicus [8]): < 50 mg/kg
Clc1ccc(-c2noc(Cn3cncn3)n2)cc1	553%	31%	-8%	141%	< 100 mg/kg		ED50 (Rattus norvegicus [10]): 21.8 mg/kg; ED50 (Rattus norvegicus [11]): 47.2 mg/kg; ED50 (Rattus norvegicus [8]): 29.5 mg/kg
Fc1cccc(-c2nc(Cn3cncn3)no2)c1						73.9 mg/kg	ED50 (Rattus norvegicus [13]): < 250 mg/kg
c1ccc(-c2noc(Cn3ccnc3)n2)cc1	134%	83%	0.6%				inhibition at 10 µM [14]: 30%; ED50 (Rattus norvegicus [9]): 5.8 mg/kg
Cc1cccc(-c2nc(Cn3cncn3)no2)c1							ED50 (Rattus norvegicus [15]): > 50 mg/kg; ED50 (Rattus norvegicus [11]): < 50 mg/kg; ED50 (Rattus norvegicus [13]): > 50 mg/kg
Fc1ccc(-c2nc(Cn3cncn3)no2)cc1							ED50 (Rattus norvegicus [16]): < 150 mg/kg; ED50 (Rattus norvegicus [17]): 15.2 mg/kg
c1ccc(-c2nc(Cn3cncn3)no2)cc1	210%	9%	-3.1%	131%	335 mg/kg	25.5 mg/kg	ED50 (Rattus norvegicus [10]): 14.6 mg/kg
CN1C(=O)CN=C(c2ccccc2)c2cc(Cl)ccc21 [DIAZEPAM]			> 99%	216%			Ki [18]: 6.8 nM
Clc1ccc(-c2nc(Cn3cncn3)no2)cc1						> 100 mg/kg	
Cc1cccc(-c2noc(Cn3cncn3)n2)c1	387%	22%	-1.1%	110%	219 mg/kg		ED50 (Rattus norvegicus [19]): 95.9 mg/kg
Cc1ccc(-c2noc(Cn3cncn3)n2)cc1					171 mg/kg	76.5 mg/kg	ED50 (Rattus norvegicus [9]): > 70 mg/kg
Fc1cccc(-c2noc(Cn3cncn3)n2)c1	212%	12%	-1.6%		128 mg/kg	39.2 mg/kg	ED50 (Rattus norvegicus [10]): 26.2 mg/kg
